These results are taken from patent US11434242B2, “Dopamine-b-hydroxylase inhibitors” (BIAL-PORTELA & Cª, S.A., priority 2017, dated 2022).

The target in the test is T1, Dopamine beta hydroxylase (Homo sapiens, UniProt P09172).
T1 construct: 125 μl of plasma; tissue Instituto Português do Sangue Transplantação; host or cells: human plasma from healthy donors
T1 sequence (P09172 40-617 limits assumed): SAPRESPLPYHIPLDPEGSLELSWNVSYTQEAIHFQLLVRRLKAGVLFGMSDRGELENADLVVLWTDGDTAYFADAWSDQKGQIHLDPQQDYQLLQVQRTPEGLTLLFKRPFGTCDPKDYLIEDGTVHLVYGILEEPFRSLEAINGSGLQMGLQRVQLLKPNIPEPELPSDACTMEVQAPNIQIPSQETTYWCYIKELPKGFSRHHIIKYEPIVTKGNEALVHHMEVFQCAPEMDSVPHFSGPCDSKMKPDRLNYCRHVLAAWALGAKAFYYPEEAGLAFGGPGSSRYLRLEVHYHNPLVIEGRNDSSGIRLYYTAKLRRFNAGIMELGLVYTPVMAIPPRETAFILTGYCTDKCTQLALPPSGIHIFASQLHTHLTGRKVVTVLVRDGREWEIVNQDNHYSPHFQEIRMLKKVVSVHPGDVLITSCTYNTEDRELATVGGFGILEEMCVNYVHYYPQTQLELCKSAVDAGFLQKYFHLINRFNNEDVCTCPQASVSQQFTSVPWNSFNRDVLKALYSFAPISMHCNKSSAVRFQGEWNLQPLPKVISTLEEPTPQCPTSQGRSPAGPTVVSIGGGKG
Nature of the test: Dopamine beta hydroxylase activity in human plasma. Type of test: biochemical. Particulars: for Plasma (0.01 μM), activity in % of control: inhibitor 0.01 μM; for Plasma (0.1 μM), activity in % of control: inhibitor 0.1 μM. In outline: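 Octopamine production from tyramine over 45 min at 37° C, measured photometrically at 330 nm after SCX extraction and periodate oxidation against an octopamine standard curve, indicates plasma DβH activity. Compounds tested at final 10, 100 and 1000 nM in human plasma, pH 5.0 cofactor buffer, 10 min preincubation; results as % of control.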

Turning to `O=C(Cc1[nH]c(=S)n2c1C[C@H](c1c(F)c(F)cc(F)c1F)C2)NC[C@@H]1CCCO1` [Example 395, 2-((R)-6-(2,3,5,6-tetrafluorophenyl)-3-thioxo-2,5,6,7-tetrahydro-3H-pyrrolo[1,2-c]imidazol-1-yl)-N—(((S)-tetrahydrofuran-2-yl)methyl)acetamide], the “Plasma (0.01 μM), activity in % of control” value was 96.9 % of control and the “Plasma (0.1 μM), activity in % of control” value was 47.8 % of control.

On to `CN(C(=O)Cc1[nH]c(=S)n2c1[C@@H]1C[C@]1(c1c(F)ccc(Cl)c1F)C2)C1CCOC1` (stereo partly drawn) [Example 396, 2-((5aS,6aR)-5a-(3-chloro-2,6-difluorophenyl)-3-thioxo-2,3,5,5a,6,6a-hexahydrocyclopropa[3,4]pyrrolo[1,2-c]imidazol-1-yl)-N-methyl-N-(tetrahydrofuran-3-yl)acetamide], for which the “Plasma (0.01 μM), activity in % of control” value was 66.9 % of control and the “Plasma (0.1 μM), activity in % of control” value is 10.8 % of control.

For the molecule `Cn1c(CC(=O)NCC2CCOCC2)c2n(c1=S)C[C@@H](c1c(F)c(F)cc(F)c1F)C2` [Example 397, (R)-2-(2-methyl-6-(2,3,5,6-tetrafluorophenyl)-3-thioxo-2,5,6,7-tetrahydro-3H-pyrrolo[1,2-c]imidazol-1-yl)-N-((tetrahydro-2H-pyran-4-yl)methyl)acetamide], the “Plasma (0.01 μM), activity in % of control” value is 79.9 % of control and the “Plasma (0.1 μM), activity in % of control” value is given as 24.1 % of control.

Take `CN(C(=O)Cc1c2n(c(=S)n1C)C[C@@H](c1c(F)c(F)cc(F)c1F)C2)C1COC1` [Example 398, (R)—N-methyl-2-(2-methyl-6-(2,3,5,6-tetrafluorophenyl)-3-thioxo-2,5,6,7-tetrahydro-3H-pyrrolo[1,2-c]imidazol-1-yl)-N-(oxetan-3-yl)acetamide]: the “Plasma (0.01 μM), activity in % of control” value is 94.3 % of control and the “Plasma (0.1 μM), activity in % of control” value is 23.0 % of control.

With `CN(C(=O)Cc1c2n(c(=S)n1C)C[C@H](c1c(F)ccc(Cl)c1F)C2)[C@@H]1CCOC1` [Example 399, 2-((S)-6-(3-chloro-2,6-difluorophenyl)-2-methyl-3-thioxo-2,5,6,7-tetrahydro-3H-pyrrolo[1,2-c]imidazol-1-yl)-N-methyl-N—((R)-tetrahydrofuran-3-yl)acetamide], the “Plasma (0.01 μM), activity in % of control” value is on record as 40.6 % of control and the “Plasma (0.1 μM), activity in % of control” value is given as 4.0 % of control.

For the molecule `Cn1c(CC(=O)NC2COC2)c2n(c1=S)C[C@@]1(c3c(F)ccc(Cl)c3F)C[C@@H]21` [Example 400, 2-((5aS,6aR)-5a-(3-chloro-2,6-difluorophenyl)-2-methyl-3-thioxo-2,3,5,5a,6,6a-hexahydrocyclopropa[3,4]pyrrolo[1,2-c]imidazol-1-yl)-N-(oxetan-3-yl)acetamide], the “Plasma (0.01 μM), activity in % of control” value is recorded as 31.9 % of control and the “Plasma (0.1 μM), activity in % of control” value was 7.3 % of control.

Turning to `O=C(Cc1[nH]c(=S)n2c1C[C@@H](c1c(F)ccc(Cl)c1F)C2)N[C@@H]1CCCOC1` [Example 401, 2-((S)-6-(3-chloro-2,6-difluorophenyl)-3-thioxo-2,5,6,7-tetrahydro-3H-pyrrolo[1,2-c]imidazol-1-yl)-N—((R)-tetrahydro-2H-pyran-3-yl)acetamide], the “Plasma (0.01 μM), activity in % of control” value is listed as 66.5 % of control and the “Plasma (0.1 μM), activity in % of control” value is 35.2 % of control.

On to `O=C(Cc1[nH]c(=S)n2c1C[C@@H](c1c(F)ccc(Br)c1F)C2)N[C@@H]1CCCOC1` [Example 402, 2-((S)-6-(3-bromo-2,6-difluorophenyl)-3-thioxo-2,5,6,7-tetrahydro-3H-pyrrolo[1,2-c]imidazol-1-yl)-N—((R)-tetrahydro-2H-pyran-3-yl)acetamide], for which the “Plasma (0.01 μM), activity in % of control” value was 59.6 % of control and the “Plasma (0.1 μM), activity in % of control” value was 20.9 % of control.

Turning to `O=C(Cc1[nH]c(=S)n2c1C[C@@H](c1c(F)ccc(Cl)c1F)C2)N[C@H]1CCOC1` [Example 404, 2-((S)-6-(3-chloro-2,6-difluorophenyl)-3-thioxo-2,5,6,7-tetrahydro-3H-pyrrolo[1,2-c]imidazol-1-yl)-N—((S)-tetrahydrofuran-3-yl)acetamide], the “Plasma (0.01 μM), activity in % of control” value is 78.7 % of control and the “Plasma (0.1 μM), activity in % of control” value is recorded as 26.2 % of control.

Consider `CN(C(=O)Cc1c2n(c(=S)n1C)C[C@H](c1c(F)ccc(Br)c1F)C2)C1CCOCC1` [Example 405, (S)-2-(6-(3-bromo-2,6-difluorophenyl)-2-methyl-3-thioxo-2,5,6,7-tetrahydro-3H-pyrrolo[1,2-c]imidazol-1-yl)-N-methyl-N-(tetrahydro-2H-pyran-4-yl)acetamide], for which the “Plasma (0.01 μM), activity in % of control” value is reported as 50.7 % of control and the “Plasma (0.1 μM), activity in % of control” value is reported as 4.5 % of control.

Take `Cn1c(CC(=O)NC2CCOCC2)c2n(c1=S)C[C@H](c1c(F)ccc(Br)c1F)C2` [Example 406, (S)-2-(6-(3-bromo-2,6-difluorophenyl)-2-methyl-3-thioxo-2,5,6,7-tetrahydro-3H-pyrrolo[1,2-c]imidazol-1-yl)-N-(tetrahydro-2H-pyran-4-yl)acetamide]: the “Plasma (0.01 μM), activity in % of control” value was 28.9 % of control and the “Plasma (0.1 μM), activity in % of control” value is reported as 2.8 % of control.

As for `O=C(O)Cc1[nH]c(=S)n2c1C[C@@H](c1c(F)ccc(Cl)c1F)C2` [Example 407, (S)-2-(6-(3-chloro-2,6-difluorophenyl)-3-thioxo-2,5,6,7-tetrahydro-3H-pyrrolo[1,2-c]imidazol-1-yl)acetic acid], the “Plasma (0.01 μM), activity in % of control” value was 102.6 % of control and the “Plasma (0.1 μM), activity in % of control” value is 42.3 % of control.

Regarding `CN(C(=O)Cc1[nH]c(=S)n2c1C[C@@H](c1c(F)ccc(Br)c1F)C2)C1COC1` [Example 408, (S)-2-(6-(3-bromo-2,6-difluorophenyl)-3-thioxo-2,5,6,7-tetrahydro-3H-pyrrolo[1,2-c]imidazol-1-yl)-N-methyl-N-(oxetan-3-yl)acetamide], the “Plasma (0.01 μM), activity in % of control” value was 77.0 % of control and the “Plasma (0.1 μM), activity in % of control” value was 14.7 % of control.

As for `Cn1c(CC(=O)O)c2n(c1=S)C[C@H](c1c(F)ccc(F)c1F)C2` [Example 409, (S)-2-(2-methyl-3-thioxo-6-(2,3,6-trifluorophenyl)-2,5,6,7-tetrahydro-3H-pyrrolo[1,2-c]imidazol-1-yl)acetic Acid], the “Plasma (0.01 μM), activity in % of control” value is listed as 112.6 % of control and the “Plasma (0.1 μM), activity in % of control” value is 64.4 % of control.

As for `O=C(Cc1[nH]c(=S)n2c1C[C@@H](c1c(F)ccc(Br)c1F)C2)NC1CCOCC1` [Example 410, (S)-2-(6-(3-bromo-2,6-difluorophenyl)-3-thioxo-2,5,6,7-tetrahydro-3H-pyrrolo[1,2-c]imidazol-1-yl)-N-(tetrahydro-2H-pyran-4-yl)acetamide], the “Plasma (0.01 μM), activity in % of control” value was 62.3 % of control and the “Plasma (0.1 μM), activity in % of control” value is on record as 11.1 % of control.

As for `Cn1c(CC(=O)N2CCOCC2)c2n(c1=S)C[C@H](c1c(F)ccc(F)c1F)C2` [Example 411, (S)-2-(2-methyl-3-thioxo-6-(2,3,6-trifluorophenyl)-2,5,6,7-tetrahydro-3H-pyrrolo[1,2-c]imidazol-1-yl)-1-morpholinoethan-1-one], the “Plasma (0.01 μM), activity in % of control” value is recorded as 104.2 % of control and the “Plasma (0.1 μM), activity in % of control” value is 78.6 % of control.

Take `Cn1c(CC(=O)N[C@@H]2CCOC2)c2n(c1=S)C[C@H](c1c(F)ccc(F)c1F)C2` [Example 412, 2-((S)-2-methyl-3-thioxo-6-(2,3,6-trifluorophenyl)-2,5,6,7-tetrahydro-3H-pyrrolo[1,2-c]imidazol-1-yl)-N—((R)-tetrahydrofuran-3-yl)acetamide]: the “Plasma (0.01 μM), activity in % of control” value was 106.2 % of control and the “Plasma (0.1 μM), activity in % of control” value was 63.2 % of control.

As for `Cn1c(CC(=O)NC2COC2)c2n(c1=S)C[C@H](c1c(F)ccc(Br)c1F)C2` [Example 413, (S)-2-(6-(3-bromo-2,6-difluorophenyl)-2-methyl-3-thioxo-2,5,6,7-tetrahydro-3H-pyrrolo[1,2-c]imidazol-1-yl)-N-(oxetan-3-yl)acetamide], the “Plasma (0.01 μM), activity in % of control” value is on record as 42.4 % of control and the “Plasma (0.1 μM), activity in % of control” value was 3.1 % of control.

`Cn1c(CC(=O)NC2COC2)c2n(c1=S)C[C@@H](c1c(F)ccc(F)c1F)C2` [Example 414, (R)-2-(2-methyl-3-thioxo-6-(2,3,6-trifluorophenyl)-2,5,6,7-tetrahydro-3H-pyrrolo[1,2-c]imidazol-1-yl)-N-(oxetan-3-yl)acetamide]: the “Plasma (0.01 μM), activity in % of control” value is reported as 95.4 % of control and the “Plasma (0.1 μM), activity in % of control” value is on record as 49.0 % of control.
